Assays:
CAMK2B (human) = CAMK2B (human) (UniProt Q13554); assay: KINOMEscan competition binding
CAMKK2 (human) = CAMKK2 (human) (UniProt Q96RR4); assay: KINOMEscan competition binding
CDC42BPA (human) = CDC42BPA (human) (UniProt Q5VT25); assay: KINOMEscan competition binding
CDK2 (human) = CDK2 (human) (UniProt P24941); assay: KINOMEscan competition binding
CDK4 CCND1 (human) = CDK4 CCND1 (human) (UniProt P11802+P24385); assay: KINOMEscan competition binding
CDKL3 (human) = CDKL3 (human) (UniProt Q8IVW4); assay: KINOMEscan competition binding
CLK1 (human) = CLK1 (human) (UniProt P49759); assay: KINOMEscan competition binding
DAPK3 (human) = DAPK3 (human) (UniProt O43293); assay: KINOMEscan competition binding
DCLK1 (human) = DCLK1 (human) (UniProt O15075); assay: KINOMEscan competition binding
EGFR (human) = EGFR (human) (UniProt P00533); assay: KINOMEscan competition binding
[1] = test system: EGFR (human), P00533 [G719S]; assay: KINOMEscan competition binding
[2] = test system: EGFR (human), P00533 [L858R]; assay: KINOMEscan competition binding
[3] = test system: EGFR (human), P00533 [T790M]; assay: KINOMEscan competition binding
EPHA7 (human) = EPHA7 (human) (UniProt Q15375); assay: KINOMEscan competition binding
ERBB3 (human) = ERBB3 (human) (UniProt P21860); assay: KINOMEscan competition binding
FES (human) = FES (human) (UniProt P07332); assay: KINOMEscan competition binding
INSRR (human) = INSRR (human) (UniProt P14616); assay: KINOMEscan competition binding
[4] = biological target: JAK1 JH2 pseudokinase (human) (UniProt P23458); assay: KINOMEscan competition binding
[5] = test system: KIT (human), P10721 [A829P]; assay: KINOMEscan competition binding
MAK (human) = MAK (human) (UniProt P20794); assay: KINOMEscan competition binding
MAP2K2 (human) = MAP2K2 (human) (UniProt P36507); assay: KINOMEscan competition binding
MAP2K5 (human) = MAP2K5 (human) (UniProt Q13163); assay: KINOMEscan competition binding
MAP4K3 (human) = MAP4K3 (human) (UniProt Q8IVH8); assay: KINOMEscan competition binding
MAPK14 (human) = MAPK14 (human) (UniProt Q16539); assay: KINOMEscan competition binding
MET (human) = MET (human) (UniProt P08581); assay: KINOMEscan competition binding
MST4 (human) = MST4 (human) (UniProt Q9P289); assay: KINOMEscan competition binding
PDGFRA (human) = PDGFRA (human) (UniProt P16234); assay: KINOMEscan competition binding
PIK3C2G (human) = PIK3C2G (human) (UniProt O75747); assay: KINOMEscan competition binding
PIP4K2B (human) = PIP4K2B (human) (UniProt P78356); assay: KINOMEscan competition binding
PRKAA2 (human) = PRKAA2 (human) (UniProt P54646); assay: KINOMEscan competition binding
ROCK2 (human) = ROCK2 (human) (UniProt O75116); assay: KINOMEscan competition binding
RPS6KA1 KD1 (human) = RPS6KA1 KD1 (human) (UniProt Q15418); assay: KINOMEscan competition binding
SBK1 (human) = SBK1 (human) (UniProt Q52WX2); assay: KINOMEscan competition binding
STK36 (human) = STK36 (human) (UniProt Q9NRP7); assay: KINOMEscan competition binding
TNK1 (human) = TNK1 (human) (UniProt Q13470); assay: KINOMEscan competition binding
TNNI3K (human) = TNNI3K (human) (UniProt Q59H18); assay: KINOMEscan competition binding
TXK (human) = TXK (human) (UniProt P42681); assay: KINOMEscan competition binding
ULK2 (human) = ULK2 (human) (UniProt Q8IYT8); assay: KINOMEscan competition binding
MAP3K7 (human) = MAP3K7 (human) (UniProt O43318); assay: radiometric filter-binding kinase assay
BRAF (human) = BRAF (human) (UniProt P15056); assay: KINOMEscan competition binding; conditions: compound 1.0 µM

MAPK14 (human), sequence (Q16539 whole entry, looked up): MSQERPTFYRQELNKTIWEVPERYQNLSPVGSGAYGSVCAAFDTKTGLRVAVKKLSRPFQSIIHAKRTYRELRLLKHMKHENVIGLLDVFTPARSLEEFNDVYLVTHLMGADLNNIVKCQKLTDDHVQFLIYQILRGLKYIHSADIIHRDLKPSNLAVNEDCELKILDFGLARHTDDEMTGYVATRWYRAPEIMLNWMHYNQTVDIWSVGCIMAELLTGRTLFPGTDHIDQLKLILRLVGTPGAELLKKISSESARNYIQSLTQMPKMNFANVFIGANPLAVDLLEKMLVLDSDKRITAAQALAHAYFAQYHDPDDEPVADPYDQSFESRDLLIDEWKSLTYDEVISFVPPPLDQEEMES
MET (human), sequence (P08581 whole entry, looked up): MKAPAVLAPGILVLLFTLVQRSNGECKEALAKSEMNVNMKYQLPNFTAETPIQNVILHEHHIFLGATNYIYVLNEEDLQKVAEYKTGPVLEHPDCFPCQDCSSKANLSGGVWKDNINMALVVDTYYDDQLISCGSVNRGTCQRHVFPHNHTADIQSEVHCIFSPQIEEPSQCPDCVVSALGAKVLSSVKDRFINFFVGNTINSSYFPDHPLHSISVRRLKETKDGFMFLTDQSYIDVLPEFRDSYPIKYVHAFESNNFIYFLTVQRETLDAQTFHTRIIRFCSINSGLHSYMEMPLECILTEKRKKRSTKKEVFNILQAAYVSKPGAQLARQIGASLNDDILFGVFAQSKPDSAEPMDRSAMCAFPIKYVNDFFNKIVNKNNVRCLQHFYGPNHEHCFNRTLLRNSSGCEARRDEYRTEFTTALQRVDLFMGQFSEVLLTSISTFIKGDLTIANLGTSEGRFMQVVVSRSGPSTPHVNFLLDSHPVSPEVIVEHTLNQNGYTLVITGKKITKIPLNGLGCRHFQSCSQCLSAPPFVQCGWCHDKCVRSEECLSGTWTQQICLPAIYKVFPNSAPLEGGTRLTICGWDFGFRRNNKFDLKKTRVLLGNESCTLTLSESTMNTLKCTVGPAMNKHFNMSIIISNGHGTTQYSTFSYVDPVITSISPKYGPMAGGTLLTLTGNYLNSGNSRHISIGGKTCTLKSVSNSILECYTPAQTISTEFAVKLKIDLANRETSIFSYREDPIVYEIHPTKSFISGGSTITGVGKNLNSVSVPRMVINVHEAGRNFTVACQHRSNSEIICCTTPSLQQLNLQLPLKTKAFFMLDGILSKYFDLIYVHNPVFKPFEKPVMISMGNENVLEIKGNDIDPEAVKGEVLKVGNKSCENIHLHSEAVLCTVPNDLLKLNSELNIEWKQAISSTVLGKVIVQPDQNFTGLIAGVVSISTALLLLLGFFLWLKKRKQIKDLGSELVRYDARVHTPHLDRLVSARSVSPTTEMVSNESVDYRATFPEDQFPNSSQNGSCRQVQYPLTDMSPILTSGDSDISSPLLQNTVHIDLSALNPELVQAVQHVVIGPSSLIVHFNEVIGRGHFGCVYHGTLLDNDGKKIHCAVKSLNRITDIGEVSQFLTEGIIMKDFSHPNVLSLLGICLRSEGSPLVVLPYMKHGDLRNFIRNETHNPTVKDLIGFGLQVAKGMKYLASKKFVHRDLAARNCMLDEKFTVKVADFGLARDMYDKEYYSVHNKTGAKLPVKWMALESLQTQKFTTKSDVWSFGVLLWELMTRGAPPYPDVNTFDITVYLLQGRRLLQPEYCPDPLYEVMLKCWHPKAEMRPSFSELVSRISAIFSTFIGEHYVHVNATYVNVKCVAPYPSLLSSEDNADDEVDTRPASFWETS
DCLK1 (human), sequence (O15075 whole entry, looked up): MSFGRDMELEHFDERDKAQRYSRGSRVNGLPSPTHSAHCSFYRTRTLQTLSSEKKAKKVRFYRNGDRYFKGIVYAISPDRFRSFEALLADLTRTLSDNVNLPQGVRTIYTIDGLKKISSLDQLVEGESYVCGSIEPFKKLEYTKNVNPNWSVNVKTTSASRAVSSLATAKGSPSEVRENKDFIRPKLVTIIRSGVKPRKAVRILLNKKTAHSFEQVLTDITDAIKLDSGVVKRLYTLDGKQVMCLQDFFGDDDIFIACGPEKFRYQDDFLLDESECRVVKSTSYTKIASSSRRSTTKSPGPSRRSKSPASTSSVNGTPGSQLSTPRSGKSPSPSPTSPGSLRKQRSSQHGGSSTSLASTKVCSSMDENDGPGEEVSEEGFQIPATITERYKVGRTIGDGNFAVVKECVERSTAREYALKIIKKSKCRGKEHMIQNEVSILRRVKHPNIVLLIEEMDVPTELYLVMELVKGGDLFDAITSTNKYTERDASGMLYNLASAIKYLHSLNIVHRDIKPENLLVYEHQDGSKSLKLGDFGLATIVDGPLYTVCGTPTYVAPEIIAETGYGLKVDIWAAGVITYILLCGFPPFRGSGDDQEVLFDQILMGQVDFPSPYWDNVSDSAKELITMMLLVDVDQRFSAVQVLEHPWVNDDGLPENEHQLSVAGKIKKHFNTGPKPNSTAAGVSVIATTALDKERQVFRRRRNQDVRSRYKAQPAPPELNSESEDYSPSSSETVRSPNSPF
CAMK2B (human), sequence (Q13554 whole entry, looked up): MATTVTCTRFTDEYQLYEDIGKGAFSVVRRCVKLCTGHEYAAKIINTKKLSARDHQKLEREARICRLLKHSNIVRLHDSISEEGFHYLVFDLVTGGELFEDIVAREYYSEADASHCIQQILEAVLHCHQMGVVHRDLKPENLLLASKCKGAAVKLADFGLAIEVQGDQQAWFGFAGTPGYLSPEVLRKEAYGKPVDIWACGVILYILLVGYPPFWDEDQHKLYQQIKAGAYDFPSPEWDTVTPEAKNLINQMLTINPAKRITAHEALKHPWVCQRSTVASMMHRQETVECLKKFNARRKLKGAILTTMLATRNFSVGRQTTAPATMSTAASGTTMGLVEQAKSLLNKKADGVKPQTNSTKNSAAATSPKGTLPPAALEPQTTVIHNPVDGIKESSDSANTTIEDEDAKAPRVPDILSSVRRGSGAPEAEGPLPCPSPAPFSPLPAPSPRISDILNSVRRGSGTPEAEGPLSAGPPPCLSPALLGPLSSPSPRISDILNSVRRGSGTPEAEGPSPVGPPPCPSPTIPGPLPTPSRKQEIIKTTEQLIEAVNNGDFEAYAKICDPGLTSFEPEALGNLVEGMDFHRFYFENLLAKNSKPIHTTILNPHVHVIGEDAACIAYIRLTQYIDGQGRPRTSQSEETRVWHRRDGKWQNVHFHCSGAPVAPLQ
CAMKK2 (human), sequence (Q96RR4 whole entry, looked up): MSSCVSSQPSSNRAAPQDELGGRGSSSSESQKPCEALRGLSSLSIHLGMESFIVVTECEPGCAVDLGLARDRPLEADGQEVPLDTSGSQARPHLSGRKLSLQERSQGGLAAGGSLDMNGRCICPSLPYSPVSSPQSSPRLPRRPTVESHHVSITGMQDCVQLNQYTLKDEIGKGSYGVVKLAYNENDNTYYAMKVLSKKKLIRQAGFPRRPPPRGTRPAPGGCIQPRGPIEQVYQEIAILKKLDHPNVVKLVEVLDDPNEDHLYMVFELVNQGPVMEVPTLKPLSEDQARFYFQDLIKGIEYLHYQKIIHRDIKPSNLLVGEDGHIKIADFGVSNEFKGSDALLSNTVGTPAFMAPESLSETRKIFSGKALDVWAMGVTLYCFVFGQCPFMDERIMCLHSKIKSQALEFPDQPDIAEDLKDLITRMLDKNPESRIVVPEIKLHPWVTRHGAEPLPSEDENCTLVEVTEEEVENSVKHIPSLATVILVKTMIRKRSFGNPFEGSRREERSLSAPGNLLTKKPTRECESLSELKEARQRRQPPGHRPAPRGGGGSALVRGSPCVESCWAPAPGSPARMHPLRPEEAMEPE
PRKAA2 (human), sequence (P54646 whole entry, looked up): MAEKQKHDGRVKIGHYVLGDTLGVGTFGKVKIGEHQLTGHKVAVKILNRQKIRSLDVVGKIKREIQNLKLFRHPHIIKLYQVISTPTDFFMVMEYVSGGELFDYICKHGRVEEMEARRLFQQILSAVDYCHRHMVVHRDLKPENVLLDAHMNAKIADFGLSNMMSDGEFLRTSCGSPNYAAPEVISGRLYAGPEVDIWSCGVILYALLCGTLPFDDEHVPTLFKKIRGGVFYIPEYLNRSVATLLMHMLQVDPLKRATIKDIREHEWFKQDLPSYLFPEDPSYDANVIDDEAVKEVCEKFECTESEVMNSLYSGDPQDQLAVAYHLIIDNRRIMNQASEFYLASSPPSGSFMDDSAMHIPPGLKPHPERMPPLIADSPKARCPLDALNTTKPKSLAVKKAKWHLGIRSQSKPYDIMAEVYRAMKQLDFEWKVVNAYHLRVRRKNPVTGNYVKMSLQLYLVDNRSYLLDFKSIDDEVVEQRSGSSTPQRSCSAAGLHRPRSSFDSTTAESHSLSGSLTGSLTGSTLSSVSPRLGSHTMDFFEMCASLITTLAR
PIP4K2B (human), sequence (P78356 whole entry, looked up): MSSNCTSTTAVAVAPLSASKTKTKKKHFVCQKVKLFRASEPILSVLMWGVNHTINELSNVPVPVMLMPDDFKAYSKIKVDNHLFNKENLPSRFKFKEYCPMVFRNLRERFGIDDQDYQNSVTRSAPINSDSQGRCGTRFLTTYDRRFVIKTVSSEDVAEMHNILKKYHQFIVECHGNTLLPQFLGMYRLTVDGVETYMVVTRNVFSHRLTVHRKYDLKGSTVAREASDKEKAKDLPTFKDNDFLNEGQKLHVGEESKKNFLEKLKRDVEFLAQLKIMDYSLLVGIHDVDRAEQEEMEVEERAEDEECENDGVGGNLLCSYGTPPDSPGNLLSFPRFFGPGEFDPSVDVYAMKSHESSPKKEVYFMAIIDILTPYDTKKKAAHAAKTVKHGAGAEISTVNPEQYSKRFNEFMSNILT

Question: Which kinase still bound, per cent of control (CAMK2B (human); compound 10.0 µM) does the source give for `Cc1ccc(NC(=O)c2ccc(NC(=O)/C=C/CN(C)C)cc2)cc1Nc1nccc(-c2cccnc2)n1` here?
Answer: 100%

Question: What about the kinase still bound, per cent of control (CAMKK2 (human); compound 10.0 µM) of the same molecule?
Answer: 56%

Question: And the kinase still bound, per cent of control (CDC42BPA (human); compound 10.0 µM)?
Answer: 83%

Question: And the kinase still bound, per cent of control (CDK2 (human); compound 10.0 µM)?
Answer: 95%

Question: And the kinase still bound, per cent of control (CDK4 CCND1 (human); compound 10.0 µM)?
Answer: 100%

Question: And the kinase still bound, per cent of control (CDKL3 (human); compound 10.0 µM)?
Answer: 100%

Question: What about the kinase still bound, per cent of control (CLK1 (human); compound 10.0 µM) of the same molecule?
Answer: 24%

Question: And the kinase still bound, per cent of control (DAPK3 (human); compound 10.0 µM)?
Answer: 75%

Question: What about the kinase still bound, per cent of control (DCLK1 (human); compound 10.0 µM) of the same molecule?
Answer: 84%

Question: What about the kinase still bound, per cent of control (EGFR (human); compound 10.0 µM) of the same molecule?
Answer: 62%

Question: And the kinase still bound, per cent of control ([1]; compound 10.0 µM)?
Answer: 61%

Question: And the kinase still bound, per cent of control ([2]; compound 10.0 µM)?
Answer: 57%

Question: What about the kinase still bound, per cent of control ([3]; compound 10.0 µM) of the same molecule?
Answer: 92%

Question: What about the kinase still bound, per cent of control (EPHA7 (human); compound 10.0 µM) of the same molecule?
Answer: 99%

Question: And the kinase still bound, per cent of control (ERBB3 (human); compound 10.0 µM)?
Answer: 100%

Question: And the kinase still bound, per cent of control (FES (human); compound 10.0 µM)?
Answer: 100%

Question: And the kinase still bound, per cent of control (INSRR (human); compound 10.0 µM)?
Answer: 100%

Question: What about the kinase still bound, per cent of control ([4]; compound 10.0 µM) of the same molecule?
Answer: 5.1%

Question: What about the kinase still bound, per cent of control ([5]; compound 10.0 µM) of the same molecule?
Answer: 17%

Question: And the kinase still bound, per cent of control (MAK (human); compound 10.0 µM)?
Answer: 100%

Question: What about the kinase still bound, per cent of control (MAP2K2 (human); compound 10.0 µM) of the same molecule?
Answer: 74%

Question: What about the kinase still bound, per cent of control (MAP2K5 (human); compound 10.0 µM) of the same molecule?
Answer: 66%

Question: What about the kinase still bound, per cent of control (MAP4K3 (human); compound 10.0 µM) of the same molecule?
Answer: 78%

Question: And the kinase still bound, per cent of control (MAPK14 (human); compound 10.0 µM)?
Answer: 66%

Question: What about the kinase still bound, per cent of control (MET (human); compound 10.0 µM) of the same molecule?
Answer: 100%

Question: What about the kinase still bound, per cent of control (MST4 (human); compound 10.0 µM) of the same molecule?
Answer: 53%

Question: And the kinase still bound, per cent of control (PDGFRA (human); compound 10.0 µM)?
Answer: 0.4%

Question: And the kinase still bound, per cent of control (PIK3C2G (human); compound 10.0 µM)?
Answer: 100%

Question: And the kinase still bound, per cent of control (PIP4K2B (human); compound 10.0 µM)?
Answer: 69%

Question: What about the kinase still bound, per cent of control (PRKAA2 (human); compound 10.0 µM) of the same molecule?
Answer: 56%

Question: What about the kinase still bound, per cent of control (ROCK2 (human); compound 10.0 µM) of the same molecule?
Answer: 61%

Question: What about the kinase still bound, per cent of control (RPS6KA1 KD1 (human); compound 10.0 µM) of the same molecule?
Answer: 63%

Question: What about the kinase still bound, per cent of control (SBK1 (human); compound 10.0 µM) of the same molecule?
Answer: 77%

Question: What about the kinase still bound, per cent of control (STK36 (human); compound 10.0 µM) of the same molecule?
Answer: 100%

Question: What about the kinase still bound, per cent of control (TNK1 (human); compound 10.0 µM) of the same molecule?
Answer: 8.7%

Question: And the kinase still bound, per cent of control (TNNI3K (human); compound 10.0 µM)?
Answer: 100%

Question: And the kinase still bound, per cent of control (TXK (human); compound 10.0 µM)?
Answer: 94%

Question: What about the kinase still bound, per cent of control (ULK2 (human); compound 10.0 µM) of the same molecule?
Answer: 30%

Question: For `Cc1cc(NC(=O)c2cccc(NC(=O)/C=C/CN(C)C)c2)ccc1Nc1nccc(-c2cccnc2)n1`, which IC50 (MAP3K7 (human)) is on record?
Answer: 7.72 µM

Question: And the kinase still bound, per cent of control (BRAF (human))?
Answer: 90%

Question: What about the kinase still bound, per cent of control (CAMK2B (human); compound 1.0 µM) of the same molecule?
Answer: 100%

Question: And the kinase still bound, per cent of control (CAMKK2 (human); compound 1.0 µM)?
Answer: 93%

Question: What about the kinase still bound, per cent of control (CDC42BPA (human); compound 1.0 µM) of the same molecule?
Answer: 100%

Question: What about the kinase still bound, per cent of control (CDK2 (human); compound 1.0 µM) of the same molecule?
Answer: 77%

Question: What about the kinase still bound, per cent of control (CDK4 CCND1 (human); compound 1.0 µM) of the same molecule?
Answer: 92%

Question: And the kinase still bound, per cent of control (CDKL3 (human); compound 1.0 µM)?
Answer: 100%

Question: What about the kinase still bound, per cent of control (CLK1 (human); compound 1.0 µM) of the same molecule?
Answer: 100%

Question: What about the kinase still bound, per cent of control (DAPK3 (human); compound 1.0 µM) of the same molecule?
Answer: 100%

Question: What about the kinase still bound, per cent of control (DCLK1 (human); compound 1.0 µM) of the same molecule?
Answer: 100%

Question: What about the kinase still bound, per cent of control (EGFR (human); compound 1.0 µM) of the same molecule?
Answer: 100%

Question: What about the kinase still bound, per cent of control ([1]; compound 1.0 µM) of the same molecule?
Answer: 90%

Question: And the kinase still bound, per cent of control ([2]; compound 1.0 µM)?
Answer: 100%

Question: What about the kinase still bound, per cent of control ([3]; compound 1.0 µM) of the same molecule?
Answer: 100%

Question: What about the kinase still bound, per cent of control (EPHA7 (human); compound 1.0 µM) of the same molecule?
Answer: 100%

Question: What about the kinase still bound, per cent of control (ERBB3 (human); compound 1.0 µM) of the same molecule?
Answer: 93%

Question: And the kinase still bound, per cent of control (FES (human); compound 1.0 µM)?
Answer: 89%

Question: And the kinase still bound, per cent of control (INSRR (human); compound 1.0 µM)?
Answer: 100%

Question: What about the kinase still bound, per cent of control ([4]; compound 1.0 µM) of the same molecule?
Answer: 91%

Question: What about the kinase still bound, per cent of control ([5]; compound 1.0 µM) of the same molecule?
Answer: 69%

Question: What about the kinase still bound, per cent of control (MAK (human); compound 1.0 µM) of the same molecule?
Answer: 100%

Question: And the kinase still bound, per cent of control (MAP2K2 (human); compound 1.0 µM)?
Answer: 91%

Question: What about the kinase still bound, per cent of control (MAP2K5 (human); compound 1.0 µM) of the same molecule?
Answer: 67%

Question: What about the kinase still bound, per cent of control (MAP4K3 (human); compound 1.0 µM) of the same molecule?
Answer: 100%

Question: What about the kinase still bound, per cent of control (MAPK14 (human); compound 1.0 µM) of the same molecule?
Answer: 100%

Question: And the kinase still bound, per cent of control (MET (human); compound 1.0 µM)?
Answer: 100%

Question: And the kinase still bound, per cent of control (MST4 (human); compound 1.0 µM)?
Answer: 82%

Question: What about the kinase still bound, per cent of control (PDGFRA (human); compound 1.0 µM) of the same molecule?
Answer: 71%

Question: And the kinase still bound, per cent of control (PIK3C2G (human); compound 1.0 µM)?
Answer: 81%

Question: And the kinase still bound, per cent of control (PIP4K2B (human); compound 1.0 µM)?
Answer: 99%

Question: And the kinase still bound, per cent of control (PRKAA2 (human); compound 1.0 µM)?
Answer: 84%

Question: And the kinase still bound, per cent of control (ROCK2 (human); compound 1.0 µM)?
Answer: 49%

Question: And the kinase still bound, per cent of control (RPS6KA1 KD1 (human); compound 1.0 µM)?
Answer: 99%

Question: And the kinase still bound, per cent of control (SBK1 (human); compound 1.0 µM)?
Answer: 96%

Question: What about the kinase still bound, per cent of control (STK36 (human); compound 1.0 µM) of the same molecule?
Answer: 91%

Question: What about the kinase still bound, per cent of control (TNK1 (human); compound 1.0 µM) of the same molecule?
Answer: 60%

Question: And the kinase still bound, per cent of control (TNNI3K (human); compound 1.0 µM)?
Answer: 100%

Question: And the kinase still bound, per cent of control (TXK (human); compound 1.0 µM)?
Answer: 96%

Question: And the kinase still bound, per cent of control (ULK2 (human); compound 1.0 µM)?
Answer: 96%

— the kinase profiling compilation of Christmann-Franck et al. (2016)
